From patent publication US10487093B2, “Heterocyclic compounds, in particular 2-oxo-4,4,5,5,6,6,7,7-octahydrobenzoxazole derivatives, and their use as antibacterial compounds” (priority 2016, dated 2019)
Values after ≈ are worked out from the molar mass of the structure shown.

Columns and labels:
[1] = tested on: Acinetobacter baumannii ATCC 19606; assay: MIC, broth microdilution (CLSI) versus planktonic bacteria; type: cell-based; conditions: ATCC19606; Acinetobacter baumannii ATCC 19606; 16-20 h; mode of three independent experiments; read-out: MIC, Ab ATCC 19606
[2] = tested on: Escherichia coli ATCC 25922; assay: as above; type: cell-based; conditions: ATCC25922; Escherichia coli ATCC 25922; 16-20 h; mode of three independent experiments; read-out: MIC, Ec ATCC 25922
E. coli ATCC BAA-2452 = assay: as above; type: cell-based; conditions: Escherichia coli ATCC BAA-2452; 16-20 h; mode of three independent experiments; read-out: MIC, Ec ATCC BAA 2452
E. coli NCTC 13476 = assay: as above; type: cell-based; conditions: NCTC13476; Escherichia coli NCTC 13476; 16-20 h; mode of three independent experiments; read-out: MIC, Ec NCTC 13476
E. coli MG1655 = assay: as above; type: cell-based, Escherichia coli; conditions: Escherichia coli, MG1655, read-out: MIC, Ec MG1655 WT
[3] = tested on: Haemophilus influenzae ATCC 49247; assay: as above; type: cell-based; conditions: ATCC49247; Haemophilus influenzae ATCC 49247; 16-20 h; mode of three independent experiments; read-out: MIC, Hi ATCC 49247
[4] = tested on: Pseudomonas aeruginosa ATCC 27853; assay: as above; type: cell-based; conditions: ATCC27853; Pseudomonas aeruginosa ATCC 27853; 16-20 h; mode of three independent experiments; read-out: MIC, Pa ATCC 27853
[5] = tested on: Staphylococcus aureus ATCC 29213; assay: as above; type: cell-based; conditions: ATCC29213; Staphylococcus aureus ATCC 29213; 16-20 h; mode of three independent experiments; read-out: MIC, Sa ATCC 29213
[6] = tested on: Streptococcus pneumoniae ATCC 49619; assay: as above; type: cell-based; conditions: ATCC49619; Streptococcus pneumoniae ATCC 49619; 16-20 h; mode of three independent experiments; read-out: MIC, Sp ATCC 49619
E. coli MG1655 S83L = type: cell-based, Escherichia coli; conditions: compared to the isogenic parent strain E. coli MG1655; S83L mutation on DNA gyrase subunit GyrA
E. coli MG1655 D87G = type: cell-based, Escherichia coli; conditions: compared to the isogenic parent strain E. coli MG1655; D87G mutation on DNA gyrase subunit GyrA
[7] = tested on: human hepatic cell line (HepG2 ATCC HB-8065); assay: Human cell viability assay (CellTiter-Glo); conditions: Homo sapiens, HepG2, 24 h, read-out: IC50 (μg/mL) HepG2

Row | SMILES | MIC [1] [µg/mL] | MIC [2] [µg/mL] | MIC (E. coli ATCC BAA-2452) [µg/mL] | MIC (E. coli NCTC 13476) [µg/mL] | MIC (E. coli MG1655) [µg/mL] | MIC [3] [µg/mL] | MIC [4] [µg/mL] | MIC [5] [µg/mL] | MIC [6] [µg/mL] | Fold increase in MIC, E. coli MG1655 S83L (E. coli MG1655 S83L) [fold] | Fold increase in MIC, E. coli MG1655 D87G (E. coli MG1655 D87G) [fold] | IC50 [7] [µg/mL]
1 | COc1ccc2ncc(=O)n(CCN[C@@H]3CC[C@@H]4[C@@H](C3)OC(=O)N4c3ccc4c(n3)NC(=O)CO4)c2c1 [Compound 21, 1-(2-{[(3aR,6R,7aR)-2-oxo-3-{3-oxo-2H,3H,4H-pyrido[3,2-b][1,4]oxazin-6-yl}-octahydro-1,3-benzoxazol-6-yl]amino}ethyl)-7-methoxy-1,2-dihydroquinoxalin-2-one] | < 1 | < 1 | < 1 | < 1 | < 1 | < 1 | < 1 | < 1 | 1 to 10 (≈ 1.97 to 19.7 µM) | 1 | 2 | > 100
2 | Cc1ccc2ncc(=O)n(CCN[C@H]3CC[C@H]4[C@@H](C3)OC(=O)N4c3ccc4c(n3)NC(=O)CO4)c2c1 [Compound 27, 1-(2-{[(3aS,6S,7aR)-2-oxo-3-{3-oxo-2H,3H,4H-pyrido[3,2-b][1,4]oxazin-6-yl}-octahydro-1,3-benzoxazol-6-yl]amino}ethyl)-7-methyl-1,2-dihydroquinoxalin-2-one] |  | < 1 |  |  |  | 1 to 10 (≈ 2.04 to 20.4 µM) | 1 to 10 (≈ 2.04 to 20.4 µM) | < 1 | < 1 |  |  | > 100
